In patent US20250034216A1, “STEREOSELECTIVE COVALENT LIGANDS FOR ONCOGENIC AND IMMUNOLOGICAL PROTEINS” (The Scripps Research Institute, priority 2021, published 2025):

Legend:
Test in all cases: IA-DTB cysteine engagement
Type in all cases: binding
Settings in all cases: 22Rv1 cells, 20 μM probe, 1 h, relative to DMSO
GPAT3_C306 = target: T1, GPAT3_C306 (Homo sapiens, UniProt Q53EU6)
T1 construct: endogenous in cells; host or cells: 22Rv1
T1 sequence (Q53EU6 1-434): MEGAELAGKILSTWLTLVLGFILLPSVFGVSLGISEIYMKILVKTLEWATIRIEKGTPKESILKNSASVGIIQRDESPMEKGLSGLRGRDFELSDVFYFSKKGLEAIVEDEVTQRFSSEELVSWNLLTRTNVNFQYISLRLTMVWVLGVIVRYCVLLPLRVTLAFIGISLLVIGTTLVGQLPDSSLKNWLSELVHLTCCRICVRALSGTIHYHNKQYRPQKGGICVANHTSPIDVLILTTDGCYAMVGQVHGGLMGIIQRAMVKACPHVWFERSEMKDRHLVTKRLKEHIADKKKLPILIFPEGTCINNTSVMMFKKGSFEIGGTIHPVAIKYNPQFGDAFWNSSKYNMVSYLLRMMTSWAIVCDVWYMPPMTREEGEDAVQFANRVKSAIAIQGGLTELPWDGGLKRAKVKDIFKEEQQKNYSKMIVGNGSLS
In short: (§1)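 Cells were treated in situ with electrophilic probes, then lysed, and the lysates (2 mg/mL protein) were labeled with IA-DTB for 1 h at ambient temperature. After reduction, alkylation and trypsin digestion, labeled peptides were streptavidin-enriched, TMT-labeled and fractionated. Engagement ratios are probe vs DMSO reporter intensities, averaged across replicates.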

NELFCD_C169 = target: T2, NELFCD_C169 (Homo sapiens, UniProt Q8IXH7)
T2 construct: endogenous in cells; host or cells: 22Rv1
T2 sequence (Q8IXH7 whole entry): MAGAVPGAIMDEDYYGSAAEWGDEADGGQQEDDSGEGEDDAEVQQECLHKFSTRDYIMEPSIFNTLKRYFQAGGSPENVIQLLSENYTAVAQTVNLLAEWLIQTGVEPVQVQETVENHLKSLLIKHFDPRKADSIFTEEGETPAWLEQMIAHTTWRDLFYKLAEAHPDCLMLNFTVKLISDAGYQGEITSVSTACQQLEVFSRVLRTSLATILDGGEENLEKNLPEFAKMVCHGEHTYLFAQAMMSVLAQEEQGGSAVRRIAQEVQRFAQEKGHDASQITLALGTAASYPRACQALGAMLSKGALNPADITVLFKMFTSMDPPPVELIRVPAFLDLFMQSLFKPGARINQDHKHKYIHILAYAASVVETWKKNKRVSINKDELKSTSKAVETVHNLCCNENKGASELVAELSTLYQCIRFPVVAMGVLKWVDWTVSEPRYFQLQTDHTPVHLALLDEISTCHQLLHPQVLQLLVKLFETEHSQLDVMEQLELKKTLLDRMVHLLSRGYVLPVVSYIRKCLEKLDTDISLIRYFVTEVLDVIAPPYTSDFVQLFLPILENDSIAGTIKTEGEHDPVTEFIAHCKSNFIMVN
In short: as §1

TTC3_C109 = target: T3, TTC3_C109 (Homo sapiens, UniProt P53804)
T3 construct: endogenous in cells; host or cells: 22Rv1
T3 sequence (P53804 whole entry): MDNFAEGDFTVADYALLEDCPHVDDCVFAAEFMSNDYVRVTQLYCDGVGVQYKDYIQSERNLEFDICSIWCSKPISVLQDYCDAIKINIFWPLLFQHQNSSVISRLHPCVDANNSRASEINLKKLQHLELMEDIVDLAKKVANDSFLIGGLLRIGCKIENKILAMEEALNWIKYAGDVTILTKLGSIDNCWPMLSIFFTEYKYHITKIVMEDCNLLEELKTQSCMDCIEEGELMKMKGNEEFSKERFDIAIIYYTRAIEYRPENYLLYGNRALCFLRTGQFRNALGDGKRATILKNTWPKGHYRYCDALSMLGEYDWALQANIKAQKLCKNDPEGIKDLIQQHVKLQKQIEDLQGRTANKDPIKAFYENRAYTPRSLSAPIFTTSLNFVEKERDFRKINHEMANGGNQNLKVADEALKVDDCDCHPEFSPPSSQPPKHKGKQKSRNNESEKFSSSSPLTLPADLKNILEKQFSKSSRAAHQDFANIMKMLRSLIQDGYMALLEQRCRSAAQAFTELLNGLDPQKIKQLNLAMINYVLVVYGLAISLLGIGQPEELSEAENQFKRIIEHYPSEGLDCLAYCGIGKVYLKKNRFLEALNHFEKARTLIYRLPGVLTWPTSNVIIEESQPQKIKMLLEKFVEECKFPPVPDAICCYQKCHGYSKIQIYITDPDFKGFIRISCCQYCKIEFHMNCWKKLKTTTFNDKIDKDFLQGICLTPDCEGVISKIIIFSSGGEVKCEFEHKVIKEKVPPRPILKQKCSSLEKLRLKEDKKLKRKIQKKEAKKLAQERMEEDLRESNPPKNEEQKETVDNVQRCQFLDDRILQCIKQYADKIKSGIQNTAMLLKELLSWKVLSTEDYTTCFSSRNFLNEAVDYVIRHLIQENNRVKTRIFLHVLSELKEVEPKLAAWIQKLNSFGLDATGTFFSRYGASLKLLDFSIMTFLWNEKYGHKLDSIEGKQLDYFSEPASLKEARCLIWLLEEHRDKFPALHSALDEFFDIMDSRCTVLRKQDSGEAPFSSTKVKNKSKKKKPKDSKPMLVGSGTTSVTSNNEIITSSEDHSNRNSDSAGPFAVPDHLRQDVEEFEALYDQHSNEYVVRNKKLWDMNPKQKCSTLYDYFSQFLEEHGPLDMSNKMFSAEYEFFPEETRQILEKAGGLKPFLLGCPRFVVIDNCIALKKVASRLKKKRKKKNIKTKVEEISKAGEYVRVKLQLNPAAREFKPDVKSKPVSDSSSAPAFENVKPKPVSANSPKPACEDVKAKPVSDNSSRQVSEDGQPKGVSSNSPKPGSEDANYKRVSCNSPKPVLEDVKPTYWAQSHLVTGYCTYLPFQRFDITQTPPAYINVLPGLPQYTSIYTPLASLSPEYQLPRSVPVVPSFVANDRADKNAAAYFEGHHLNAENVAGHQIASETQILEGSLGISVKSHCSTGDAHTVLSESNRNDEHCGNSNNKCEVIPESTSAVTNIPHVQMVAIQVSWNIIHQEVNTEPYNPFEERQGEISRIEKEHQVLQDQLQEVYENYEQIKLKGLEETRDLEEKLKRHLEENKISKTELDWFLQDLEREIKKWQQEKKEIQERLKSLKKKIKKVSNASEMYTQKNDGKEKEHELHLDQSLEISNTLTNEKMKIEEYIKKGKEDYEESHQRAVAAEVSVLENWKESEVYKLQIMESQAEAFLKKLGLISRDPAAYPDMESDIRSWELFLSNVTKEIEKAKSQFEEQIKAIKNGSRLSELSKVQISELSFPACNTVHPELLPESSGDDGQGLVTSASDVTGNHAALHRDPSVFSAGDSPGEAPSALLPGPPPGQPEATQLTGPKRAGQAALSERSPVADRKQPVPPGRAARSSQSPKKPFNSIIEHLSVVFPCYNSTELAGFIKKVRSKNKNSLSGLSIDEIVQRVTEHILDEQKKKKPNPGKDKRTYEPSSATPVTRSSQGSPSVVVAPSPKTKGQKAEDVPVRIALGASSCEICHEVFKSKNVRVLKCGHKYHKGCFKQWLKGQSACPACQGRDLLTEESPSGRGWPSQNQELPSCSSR
In short: as §1

PDE3B_C311 = target: T4, PDE3B_C311 (Homo sapiens, UniProt Q13370)
T4 construct: endogenous in cells; host or cells: 22Rv1
T4 sequence (Q13370 whole entry): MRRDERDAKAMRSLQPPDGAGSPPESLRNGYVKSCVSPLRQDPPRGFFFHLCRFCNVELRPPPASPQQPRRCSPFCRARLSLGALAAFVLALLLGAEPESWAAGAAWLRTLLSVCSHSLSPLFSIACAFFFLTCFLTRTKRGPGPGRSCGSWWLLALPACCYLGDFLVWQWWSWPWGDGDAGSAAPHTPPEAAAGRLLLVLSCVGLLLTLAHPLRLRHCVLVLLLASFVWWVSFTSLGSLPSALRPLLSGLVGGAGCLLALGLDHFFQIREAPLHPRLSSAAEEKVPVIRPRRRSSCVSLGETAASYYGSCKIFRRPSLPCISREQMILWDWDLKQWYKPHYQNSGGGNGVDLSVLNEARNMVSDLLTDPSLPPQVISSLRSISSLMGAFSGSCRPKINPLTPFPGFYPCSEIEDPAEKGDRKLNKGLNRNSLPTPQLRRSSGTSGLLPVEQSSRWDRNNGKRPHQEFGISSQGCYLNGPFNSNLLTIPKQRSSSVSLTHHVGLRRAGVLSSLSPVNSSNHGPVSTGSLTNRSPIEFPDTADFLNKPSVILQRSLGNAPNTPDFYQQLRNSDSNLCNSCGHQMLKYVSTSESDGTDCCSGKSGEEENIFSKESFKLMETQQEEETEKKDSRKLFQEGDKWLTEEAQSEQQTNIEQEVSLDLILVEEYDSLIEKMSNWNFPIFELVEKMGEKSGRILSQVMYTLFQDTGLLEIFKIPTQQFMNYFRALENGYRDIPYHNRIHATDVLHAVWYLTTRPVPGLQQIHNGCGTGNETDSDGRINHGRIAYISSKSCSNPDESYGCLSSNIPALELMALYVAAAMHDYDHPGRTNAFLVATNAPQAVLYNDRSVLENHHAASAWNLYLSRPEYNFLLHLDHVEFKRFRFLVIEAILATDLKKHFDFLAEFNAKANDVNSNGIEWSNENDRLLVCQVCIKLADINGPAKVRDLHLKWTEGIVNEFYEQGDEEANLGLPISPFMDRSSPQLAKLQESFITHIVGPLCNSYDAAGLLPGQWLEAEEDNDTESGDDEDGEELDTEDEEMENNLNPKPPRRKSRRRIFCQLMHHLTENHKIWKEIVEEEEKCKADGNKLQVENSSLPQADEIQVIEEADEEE
In short: as §1

LRPPRC_C571 = target: T5, LRPPRC_C571 (Homo sapiens, UniProt P42704)
T5 construct: endogenous in cells; host or cells: 22Rv1
In short: as §1

CPT1A_C96 = target: T6, CPT1A_C96 (Homo sapiens, UniProt P50416)
T6 construct: endogenous in cells; host or cells: 22Rv1
T6 sequence (P50416 1-773): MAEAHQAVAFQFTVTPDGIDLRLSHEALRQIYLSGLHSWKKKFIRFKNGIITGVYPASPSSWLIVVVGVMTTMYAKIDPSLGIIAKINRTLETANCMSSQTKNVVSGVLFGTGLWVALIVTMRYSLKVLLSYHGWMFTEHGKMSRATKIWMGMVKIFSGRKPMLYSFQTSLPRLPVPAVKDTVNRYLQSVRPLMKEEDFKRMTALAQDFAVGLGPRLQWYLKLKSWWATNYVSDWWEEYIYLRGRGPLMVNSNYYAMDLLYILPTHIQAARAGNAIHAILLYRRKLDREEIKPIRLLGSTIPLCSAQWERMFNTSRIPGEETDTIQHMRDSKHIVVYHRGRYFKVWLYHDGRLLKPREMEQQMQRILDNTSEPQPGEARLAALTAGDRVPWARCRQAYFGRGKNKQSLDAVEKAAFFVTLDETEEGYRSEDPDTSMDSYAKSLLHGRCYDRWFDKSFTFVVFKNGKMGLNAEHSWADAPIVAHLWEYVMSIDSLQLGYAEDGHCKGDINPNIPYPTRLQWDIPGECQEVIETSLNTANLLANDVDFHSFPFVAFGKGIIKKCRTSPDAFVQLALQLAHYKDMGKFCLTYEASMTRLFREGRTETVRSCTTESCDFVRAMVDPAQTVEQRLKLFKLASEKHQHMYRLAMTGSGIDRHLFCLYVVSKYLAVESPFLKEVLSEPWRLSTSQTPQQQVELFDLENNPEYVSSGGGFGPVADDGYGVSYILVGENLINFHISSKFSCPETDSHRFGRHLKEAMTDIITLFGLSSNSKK
In short: as §1

% engagement GPAT3_C306 (GPAT3_C306)	% engagement NELFCD_C169 (NELFCD_C169)	% engagement TTC3_C109 (TTC3_C109)	% engagement PDE3B_C311 (PDE3B_C311)	% engagement LRPPRC_C571 (LRPPRC_C571)	% engagement CPT1A_C96 (CPT1A_C96)	Structure (SMILES)
100%	69.5%	21.5%	75.5%	5%	93.5%	C=CC(=O)N1C[C@H](c2ccc(Br)cc2)[C@H]1C(=O)Nc1cccc2cccnc12 [MY-3B, (2S,3S)-1-acryloyl-3-(4-bromophenyl)-N-(quinolin-8-yl)azetidine-2-carboxamide]
81.5%	41.75%	54.5%	58%	7%	84.75%	C=CC(=O)N1C[C@H](c2ccc(Br)cc2)[C@@H]1C(=O)Nc1cccc2cccnc12 [MY-1B, (2R,3S)-1-acryloyl-3-(4-bromophenyl)-N-(quinolin-8-yl)azetidine-2-carboxamide]
57%	40.75%	4.5%	49%	20%	89.25%	C=CC(=O)N1C[C@H](c2ccc(Br)cc2)[C@H]1C(=O)Nc1cccc2cccnc12 [MY-3A, (2S,3S)-1-acryloyl-3-(4-bromophenyl)-N-(quinolin-8-yl)azetidine-2-carboxamide]
75.75%	51%	80.5%	57.5%	73.5%	87%	C=CC(=O)N1C[C@@H](c2ccc(Br)cc2)[C@H]1C(=O)Nc1cccc2cccnc12 [MY-1A, (2S,3R)-1-acryloyl-3-(4-bromophenyl)-N-(quinolin-8-yl)azetidine-2-carboxamide]
